What was measured:
[1] = biological target: T1, COS-7/AMY3 (human calcitonin receptor (CTR) and RAMP3) (Homo sapiens, UniProt O60896+P30988); experiment: Amylin Receptor cAMP Assay II; format: cell-based; details: values marked **: Amylin Receptor cAMP Assay II; COS-7/AMY3 cells, cAMP dynamic 2 kit, 30 min; read-out: Amylin Receptor cAMP Stimulation Activity: EC50
T1 construct: expressed in transfected cells; host or cells: COS-7
Procedure, shortened: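 COS-7 cells stably co-expressing human CTR and RAMP3 (AMY3), 2000 cells/well in HBSS with 20 mM HEPES, 0.5 mM IBMX, 0.1% casein, stimulated with compound for 30 min at 37 °C. cAMP measured by HTRF (665/615 nm), activity normalized between vehicle and maximal control.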

[2] = biological target: T2, human calcitonin receptor (CTR) (Homo sapiens, UniProt P30988); experiment: Calcitonin Receptor (CTR) cAMP Assay; format: cell-based; details: COS7-human CTR Clone #2 stable cell line, cAMP dynamic 2 kit, 30 min; read-out: Calcitonin Receptor cAMP Stimulation Activity: EC50
T2 construct: expressed in transfected cells; host or cells: COS-7 (COS7-human CTR Clone #2)
T2 sequence (P30988 25-474): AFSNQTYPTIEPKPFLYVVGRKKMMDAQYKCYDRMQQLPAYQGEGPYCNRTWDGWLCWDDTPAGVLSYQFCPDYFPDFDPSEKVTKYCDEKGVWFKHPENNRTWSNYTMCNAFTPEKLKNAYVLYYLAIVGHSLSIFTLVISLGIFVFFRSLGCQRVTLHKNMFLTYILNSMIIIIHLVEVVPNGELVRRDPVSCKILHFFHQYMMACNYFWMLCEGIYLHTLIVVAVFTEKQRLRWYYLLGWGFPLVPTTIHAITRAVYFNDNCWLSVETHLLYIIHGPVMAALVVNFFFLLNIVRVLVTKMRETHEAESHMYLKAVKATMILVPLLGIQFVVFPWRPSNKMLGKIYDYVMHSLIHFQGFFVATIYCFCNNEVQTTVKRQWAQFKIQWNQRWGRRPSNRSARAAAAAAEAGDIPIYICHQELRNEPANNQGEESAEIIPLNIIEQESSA
Procedure, shortened: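 COS-7 cells stably expressing human CTR (2000 cells/well) were incubated 30 min at 37 °C with 4-fold serially diluted compound in HBSS/20 mM HEPES/0.5 mM IBMX/0.1% casein. cAMP was detected by HTRF (665/615 nm) after 1 h at RT. % activity was normalised to vehicle and positive controls.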

T1 sequence (O60896 24-148, one chain of several): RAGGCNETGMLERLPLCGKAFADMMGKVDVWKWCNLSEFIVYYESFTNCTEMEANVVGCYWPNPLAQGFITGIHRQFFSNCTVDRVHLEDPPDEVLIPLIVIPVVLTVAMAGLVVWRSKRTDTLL

EC50 [1] [nM]	EC50 [2] [nM]	Structure (SMILES)
758	27.6	N#Cc1ccc(Cn2ccc3cc(-c4c5c(nc(CCc6ccc(F)cc6)c4-c4n[nH]c(=O)o4)[C@@H]4CCCN4C5=O)cnc32)nc1 [Compound 223, (S)-6-((5-(2-(4-fluorophenethyl)-5-oxo-3-(5-oxo-4,5-dihydro-1,3,4-oxadiazol-2-yl)-7,8,9,9a-tetrahydro-5H-pyrido[2,3-a]pyrrolizin-4-yl)-1H-pyrrolo[2,3-b]pyridin-1-yl)methyl)nicotinonitrile]
28.7	1.17	CC(c1ccc(C#N)c(F)c1)n1ccc2cc(-c3c(-c4n[nH]c(=O)o4)c(CCc4ccc(F)cc4)nc4c3c(=O)n3n4CCC3)ccc21 (centres unmarked) [Compound 159, 2-fluoro-4-[1-[5-[11-[2-(4-fluorophenyl)ethyl]-7-oxo-10-(2-oxo-3H-1,3,4-oxadiazol-5-yl)-2,6,12-triazatricyclo[6.4.0.02,6]dodeca-1(8),9,11-trien-9-yl]indol-1-yl]ethyl]benzonitrile]
437	27.4	O=C1c2c(nc(CCc3ccc(F)cc3)c(-c3n[nH]c(=O)o3)c2-c2ccc3c(Cc4ccc(F)cc4F)nccc3c2)[C@@H]2CCCN12 [Compound 219, (S)-5-(4-(1-(2,4-difluorobenzyl)isoquinolin-6-yl)-2-(4-fluorophenethyl)-5-oxo-7,8,9,9a-tetrahydro-5H-pyrido[2,3-a]pyrrolizin-3-yl)-1,3,4-oxadiazol-2(3H)-one]
113	53.5	O=C1c2c(nc(CCc3ccc(F)cc3)c(-c3noc(=O)[nH]3)c2-c2cc3ccnc(N4CCCC4c4ccc(F)c(F)c4)c3s2)[C@@H]2CCCN12 (some centres unmarked) [Compound 117]
0.608	0.0484	COc1c(F)ccc2c1CC[C@H]2Nc1nc(C)cc2cc(-c3c4c(nc(CCc5ccc(F)cc5)c3-c3n[nH]c(=O)o3)[C@@H]3CCCN3C4=O)sc12 [Compound 187, 5-((S)-4-(7-(((R)-5-fluoro-4-methoxy-2,3-dihydro-1H-inden-1-yl)amino)-5-methylthieno[2,3-c]pyridin-2-yl)-2-(4-fluorophenethyl)-5-oxo-7,8,9,9a-tetrahydro-5H-pyrido[2,3-a]pyrrolizin-3-yl)-1,3,4-oxadiazol-2(3H)-one]
4.38	0.13	COc1c(F)ccc2c1CC[C@H]2Nc1nccc2cc(-c3c4c(nc(CCc5ccc(F)cc5)c3-c3n[nH]c(=O)o3)[C@@H]3CCCN3C4=O)sc12 [Compound 167, 5-((S)-4-(7-(((R)-5-fluoro-4-methoxy-2,3-dihydro-1H-inden-1-yl)amino)thieno[2,3-c]pyridin-2-yl)-2-(4-fluorophenethyl)-5-oxo-7,8,9,9a-tetrahydro-5H-pyrido[2,3-a]pyrrolizin-3-yl)-1,3,4-oxadiazol-2(3H)-one]
1640	17.6	COc1c(F)ccc2c1CC(F)(F)[C@@H]2Nc1nccc2cc(-c3c4c(nc(CCc5ccc(F)cc5)c3-c3n[nH]c(=O)o3)[C@@H]3CCCN3C4=O)sc12 [Compound 290, 5-((S)-2-(4-fluorophenethyl)-5-oxo-4-(7-(((R)-2,2,5-trifluoro-4-methoxy-2,3-dihydro-1H-inden-1-yl)amino)thieno[2,3-c]pyridin-2-yl)-7,8,9,9a-tetrahydro-5H-pyrido[2,3-a]pyrrolizin-3-yl)-1,3,4-oxadiazol-2(3H)-one]
42.9	1.19	COc1cccc2c1CC[C@H]2Nc1nccc2cc(-c3c4c(nc(CCc5ccc(C(F)(F)F)cc5)c3-c3noc(=O)[nH]3)[C@@H]3CCCN3C4=O)sc12 [Compound 123]
55.4	2.48	COc1cccc2c1CC[C@H]2Nc1nccc2cc(-c3c(-c4n[nH]c(=O)o4)c(CCc4ccc(F)cc4)nc4c3S(=O)(=O)CC4C(C)C)sc12 (stereo partly drawn) [Compound 156, 5-(5-(4-fluorophenethyl)-3-isopropyl-7-(7-(((R)-4-methoxy-2,3-dihydro-1H-inden-1-yl)amino)thieno[2,3-c]pyridin-2-yl)-1,1-dioxido-2,3-dihydrothieno[3,2-b]pyridin-6-yl)-1,3,4-oxadiazol-2(3H)-one]
529	4.69	N#Cc1ccc(Cn2c(=O)oc3cc(-c4c5c(nc(CCC6CCOCC6)c4-c4cc(=O)[nH]o4)[C@@H]4CCCN4C5=O)ccc32)cc1F [Compound 203, 4-[[6-[(9aS)-5-oxo-3-(3-oxoisoxazol-5-yl)-2-(2-tetrahydropyran-4-ylethyl)-1,4,7,8,9,9a-hexahydropyrido[2,3-a]pyrrolizin-4-yl]-2-oxo-1,3-benzoxazol-3-yl]methyl]-2-fluoro-benzonitrile]
159	22	COc1cccc2c1CC[C@H]2Nc1nccc2cc(-c3c4c(nc(CCc5cccc(C6CCOC6)c5)c3-c3noc(=O)[nH]3)[C@@H]3CCCN3C4=O)sc12 (stereo partly drawn) [Compound 151, 3-((9aS)-4-(7-(((R)-4-methoxy-2,3-dihydro-1H-inden-1-yl)amino)thieno[2,3-c]pyridin-2-yl)-5-oxo-2-(3-(tetrahydrofuran-3-yl)phenethyl)-7,8,9,9a-tetrahydro-5H-pyrido[2,3-a]pyrrolizin-3-yl)-1,2,4-oxadiazol-5(4H)-one]
0.54	0.0645	COc1c(Cl)cc2c(c1F)CC[C@H]2Nc1nccc2cc(-c3c4c(nc(CCc5ccc(F)cc5)c3-c3n[nH]c(=O)o3)C35CC(CN3C4=O)C5)sc12 [Compound 289, (R)-5-(4-(7-((6-chloro-4-fluoro-5-methoxy-2,3-dihydro-1H-inden-1-yl)amino)thieno[2,3-c]pyridin-2-yl)-2-(4-fluorophenethyl)-5-oxo-5,7,8,9-tetrahydro-8,9a-methanopyrido[2,3-a]pyrrolizin-3-yl)-1,3,4-oxadiazol-2(3H)-one]
0.35	0.0178	COc1c(F)ccc2c1CC[C@H]2Nc1nc(C(F)F)cc2cc(-c3c4c(nc(CCc5ccc(F)cc5)c3-c3n[nH]c(=O)o3)C35CC(CN3C4=O)C5)sc12 [Compound 287, (R)-5-(4-(5-(difluoromethyl)-7-((5-fluoro-4-methoxy-2,3-dihydro-1H-inden-1-yl)amino)thieno[2,3-c]pyridin-2-yl)-2-(4-fluorophenethyl)-5-oxo-8,9-dihydro-5H,7H-8,9a-methanopyrido[2,3-a]pyrrolizin-3-yl)-1,3,4-oxadiazol-2(3H)-one]
18.2	0.628	COc1cccc2c1CC[C@H]2Nc1nccc2cc(-c3c4c(nc(CCc5cccc(C(F)(F)F)c5)c3-c3noc(=O)[nH]3)[C@@H]3CCCN3C4=O)sc12 [Compound 124, 3-((S)-4-(7-(((R)-4-methoxy-2,3-dihydro-1H-inden-1-yl)amino)thieno[2,3-c]pyridin-2-yl)-5-oxo-2-(3-(trifluoromethyl)phenethyl)-7,8,9,9a-tetrahydro-5H-pyrido[2,3-a]pyrrolizin-3-yl)-1,2,4-oxadiazol-5(4H)-one]
11700	526	COc1cccc2c1CC[C@H]2Nc1nccc2cc(-c3c(-c4n[nH]c(=O)o4)c(CCc4ccc(F)cc4)nc4c3S(=O)(=O)CC4(C)C(C)C)sc12 (stereo partly drawn) [Compound 212, 5-(5-(4-fluorophenethyl)-3-isopropyl-7-(7-(((R)-4-methoxy-2,3-dihydro-1H-inden-1-yl)amino)thieno[2,3-c]pyridin-2-yl)-3-methyl-1,1-dioxido-2,3-dihydrothieno[3,2-b]pyridin-6-yl)-1,3,4-oxadiazol-2(3H)-one]
54.1	3.18	O=C1c2c(nc(CCc3ccc(F)cc3)c(-c3noc(=O)[nH]3)c2-c2cc3ccnc(NCc4ccc(F)c(Cl)c4)c3s2)[C@@H]2CCCN12 [Compound 146]
1.52	0.152	O=C1c2c(nc(CCc3ccc(F)cc3)c(-c3n[nH]c(=O)o3)c2-c2cc3ccnc(N[C@@H]4CCOc5c(F)cc(F)cc54)c3s2)[C@@H]2CCCN12 [Compound 259, 5-((S)-4-(7-(((R)-6,8-difluorochroman-4-yl)amino)thieno[2,3-c]pyridin-2-yl)-2-(4-fluorophenethyl)-5-oxo-7,8,9,9a-tetrahydro-5H-pyrido[2,3-a]pyrrolizin-3-yl)-1,3,4-oxadiazol-2(3H)-one]
401	205	O=C1c2c(nc(CCc3ccc(F)cc3)c(-c3noc(=O)[nH]3)c2-c2ccc3c(NCc4ccc(F)c(F)c4)nccc3c2)[C@@H]2CCCN12 [Compound 111]
0.363	0.0138	COc1c(F)ccc2c1C[C@@H](F)[C@H]2Nc1nccc2cc(-c3c4c(nc(CCc5ccc(F)cc5)c3-c3n[nH]c(=O)o3)C35CC(CN3C4=O)C5)sc12 [Compound 291, 5-(4-(7-(((1S,2R)-2,5-difluoro-4-methoxy-2,3-dihydro-1H-inden-1-yl)amino)thieno[2,3-c]pyridin-2-yl)-2-(4-fluorophenethyl)-5-oxo-5,7,8,9-tetrahydro-8,9a-methanopyrido[2,3-a]pyrrolizin-3-yl)-1,3,4-oxadiazol-2(3H)-one]
